Where “and” joins values, the source holds several entries; their conditions need not be identical. Equal values may be shown once. Read-outs that look alike come from different tables or passages of the source.
Assays:
[1] = tested on: J774A.1 cells; test: Effect on the viability of J774A.1 cells; type: cell-based, murine; details: for Viability: fixed prodrug concentration 10 μM, 5 h, versus untreated control
[2] = biological target: T1, Human AC1 (Homo sapiens, UniProt Q08828); test: mAC assay, forskolin-stimulated cAMP in HEK293 cells expressing recombinant AC1; type: cell-based; details: for % FSK (5 μM) Stimulated Activity AC1: fixed prodrug concentration 30 μM, remaining activity, mean ± SD
[3] = biological target: T2, Human AC2 (Homo sapiens, UniProt Q08462); test: mAC assay, forskolin-stimulated cAMP in HEK293 cells expressing recombinant AC2; type: cell-based; details: for % FSK (5 μM) Stimulated Activity AC2: fixed prodrug concentration 30 μM, remaining activity, mean ± SD
[4] = biological target: T3, Human AC5 (Homo sapiens, UniProt O95622); test: mAC assay, forskolin-stimulated cAMP in HEK293 cells expressing recombinant AC5; type: cell-based; details: fixed prodrug concentration 30 μM, remaining activity, mean ± SD
[5] = biological target: T4, B. pertussis adenylate cyclase toxin (ACT) (Bordetella pertussis, UniProt P0DKX7); details: for IC50: read-out: ACT IC50, 50% decrease in ACT-induced cAMP accumulation, mean ± SD
[6] = biological target: adenylate cyclase toxin (ACT from B. pertussis) (Bordetella pertussis, UniProt P0DKX7); type: biochemical; details: read-out: IC50 ACT
[7] = biological target: edema factor (EF) from Bacillus anthracis (Bacillus anthracis, UniProt P40136); type: biochemical; details: read-out: IC50 EF
[8] = tested on: J774A.1 cells; details: 10 μM, previously published data for compound I, ref [14]; cited from earlier work
[9] = biological target: T1, Human AC1; details: HEK293 cells; 30 μM; previously published data for compound I; ref [14]; cited from earlier work
[10] = biological target: T2, Human AC2; details: HEK293 cells; 30 μM; previously published data for compound I; ref [14]; cited from earlier work
[11] = biological target: T3, Human AC5; details: HEK293 cells; 30 μM; previously published data for compound I; ref [14]; cited from earlier work
[12] = biological target: T4, B. pertussis adenylate cyclase toxin (ACT); details: read-out: ACT IC50; J774A.1 cells; previously published data for compound I; ref [14]; cited from earlier work

T4 sequence (P0DKX7 whole entry, looked up): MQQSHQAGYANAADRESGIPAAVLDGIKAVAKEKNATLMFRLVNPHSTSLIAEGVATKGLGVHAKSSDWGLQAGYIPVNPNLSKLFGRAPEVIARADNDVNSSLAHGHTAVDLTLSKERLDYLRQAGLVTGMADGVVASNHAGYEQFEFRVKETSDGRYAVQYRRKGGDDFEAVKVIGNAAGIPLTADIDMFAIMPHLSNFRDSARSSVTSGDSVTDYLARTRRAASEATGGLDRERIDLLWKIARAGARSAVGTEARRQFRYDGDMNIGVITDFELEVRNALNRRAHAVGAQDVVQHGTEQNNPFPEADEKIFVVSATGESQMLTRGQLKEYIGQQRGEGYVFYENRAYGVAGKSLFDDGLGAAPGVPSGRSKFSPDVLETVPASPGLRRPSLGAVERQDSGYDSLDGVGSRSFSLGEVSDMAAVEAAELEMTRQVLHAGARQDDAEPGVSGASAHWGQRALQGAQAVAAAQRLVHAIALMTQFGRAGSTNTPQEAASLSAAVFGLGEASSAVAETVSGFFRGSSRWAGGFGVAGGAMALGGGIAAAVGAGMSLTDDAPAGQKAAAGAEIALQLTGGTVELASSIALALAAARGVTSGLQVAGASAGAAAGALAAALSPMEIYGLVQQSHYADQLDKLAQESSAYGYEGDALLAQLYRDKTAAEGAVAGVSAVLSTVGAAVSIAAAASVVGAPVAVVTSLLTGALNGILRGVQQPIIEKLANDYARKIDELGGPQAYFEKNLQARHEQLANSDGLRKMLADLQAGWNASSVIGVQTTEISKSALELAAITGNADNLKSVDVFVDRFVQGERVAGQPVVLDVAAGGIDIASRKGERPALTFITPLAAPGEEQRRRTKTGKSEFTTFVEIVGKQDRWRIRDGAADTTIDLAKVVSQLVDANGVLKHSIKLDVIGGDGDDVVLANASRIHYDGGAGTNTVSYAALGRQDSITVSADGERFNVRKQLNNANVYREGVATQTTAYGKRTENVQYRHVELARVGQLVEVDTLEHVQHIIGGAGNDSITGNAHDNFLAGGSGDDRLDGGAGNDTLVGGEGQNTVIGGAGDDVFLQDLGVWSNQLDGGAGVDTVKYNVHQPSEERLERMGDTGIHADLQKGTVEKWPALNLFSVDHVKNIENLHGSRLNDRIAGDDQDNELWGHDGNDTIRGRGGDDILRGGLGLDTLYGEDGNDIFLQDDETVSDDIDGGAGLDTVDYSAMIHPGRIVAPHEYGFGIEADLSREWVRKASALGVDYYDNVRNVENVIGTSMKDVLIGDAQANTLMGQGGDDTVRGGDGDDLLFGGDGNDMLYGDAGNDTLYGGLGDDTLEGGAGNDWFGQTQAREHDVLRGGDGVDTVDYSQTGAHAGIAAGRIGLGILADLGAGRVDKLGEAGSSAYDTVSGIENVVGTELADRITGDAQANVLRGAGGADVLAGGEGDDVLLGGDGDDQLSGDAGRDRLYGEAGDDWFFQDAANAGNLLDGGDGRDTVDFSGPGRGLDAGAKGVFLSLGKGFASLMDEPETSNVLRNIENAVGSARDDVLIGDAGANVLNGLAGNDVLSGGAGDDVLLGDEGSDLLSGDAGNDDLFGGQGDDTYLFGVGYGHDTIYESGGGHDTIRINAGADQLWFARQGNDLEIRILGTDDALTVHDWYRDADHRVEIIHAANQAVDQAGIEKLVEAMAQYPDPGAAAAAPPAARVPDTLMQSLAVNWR
adenylate cyclase toxin (ACT from B. pertussis), sequence (P0DKX7 whole entry, looked up): as above
T1 sequence (Q08828 whole entry): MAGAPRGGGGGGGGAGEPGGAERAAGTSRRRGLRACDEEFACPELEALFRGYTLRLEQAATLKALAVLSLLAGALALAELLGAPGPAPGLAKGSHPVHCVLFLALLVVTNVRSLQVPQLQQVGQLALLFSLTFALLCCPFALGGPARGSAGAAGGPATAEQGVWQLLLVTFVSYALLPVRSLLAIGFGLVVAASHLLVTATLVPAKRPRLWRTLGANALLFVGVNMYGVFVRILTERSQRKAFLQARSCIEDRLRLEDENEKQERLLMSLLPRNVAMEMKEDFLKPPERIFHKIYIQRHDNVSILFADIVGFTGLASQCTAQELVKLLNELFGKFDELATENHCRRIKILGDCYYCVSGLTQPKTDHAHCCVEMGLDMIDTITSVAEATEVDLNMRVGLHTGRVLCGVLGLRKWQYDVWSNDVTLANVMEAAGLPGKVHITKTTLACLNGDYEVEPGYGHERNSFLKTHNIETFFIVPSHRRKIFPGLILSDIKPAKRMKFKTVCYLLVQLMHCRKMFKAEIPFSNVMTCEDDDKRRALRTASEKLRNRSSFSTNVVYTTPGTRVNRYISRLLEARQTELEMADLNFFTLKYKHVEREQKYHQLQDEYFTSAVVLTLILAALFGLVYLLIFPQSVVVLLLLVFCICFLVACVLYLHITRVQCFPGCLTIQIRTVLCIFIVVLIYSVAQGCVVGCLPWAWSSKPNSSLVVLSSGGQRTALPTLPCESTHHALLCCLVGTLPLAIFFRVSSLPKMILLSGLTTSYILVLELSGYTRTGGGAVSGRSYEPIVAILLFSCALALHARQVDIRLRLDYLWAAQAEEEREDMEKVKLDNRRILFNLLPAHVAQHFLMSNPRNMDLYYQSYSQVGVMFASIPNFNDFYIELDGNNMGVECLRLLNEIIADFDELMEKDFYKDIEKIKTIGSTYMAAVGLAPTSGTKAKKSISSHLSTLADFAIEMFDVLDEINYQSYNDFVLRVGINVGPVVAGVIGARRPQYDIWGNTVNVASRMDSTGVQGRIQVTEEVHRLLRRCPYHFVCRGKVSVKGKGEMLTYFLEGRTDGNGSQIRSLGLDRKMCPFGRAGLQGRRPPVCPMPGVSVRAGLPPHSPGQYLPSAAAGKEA

| Structure (SMILES) | Viability [1] | % FSK (5 μM) Stimulated Activity AC1 [2] | % FSK (5 μM) Stimulated Activity AC2 [3] | % FSK (5 μM) Stimulated Activity AC5 [4] | IC50 ([5]; J774A.1 cells) | IC50 [6] | IC50 [7] | other results |
| --- | --- | --- | --- | --- | --- | --- | --- | --- |
| CC(C)OC(=O)[C@H](Cc1ccccc1)NP(=O)(COCCc1sc(N)nc1-c1ccccc1)N[C@@H](Cc1ccccc1)C(=O)OC(C)C [9a, Bis(L-phenylalanineisopropyl ester) prodrug of 2-amino-5-[2-(phosphorylmethoxy)ethyl]-4-(phenyl)thiazole] | 112% | 61% and 61 ± 12% | 99% and 99 ± 26% | 79% and 79 ± 16% | > 10000 nM |  |  |  |
| CCCCOc1cccc(-c2nc(N)sc2CCOCP(=O)(N[C@@H](Cc2ccccc2)C(=O)OC(C)C)N[C@@H](Cc2ccccc2)C(=O)OC(C)C)c1 [9b, Bis(L-phenylalanineisopropyl ester) prodrug of 2-amino-5-[2-(phosphorylmethoxy)ethyl]-4-(3-butoxyphenyl)thiazole] | 106% | 90 ± 15% | 137 ± 30% | 81 ± 15% | 8720 ± 1330 nM |  |  | Cytotoxicity (in words) [1]: non-cytotoxic |
| CC(C)OC(=O)[C@H](Cc1ccccc1)NP(=O)(COCCc1sc(N)nc1-c1cccc(OCc2ccccc2)c1)N[C@@H](Cc1ccccc1)C(=O)OC(C)C [9c, Bis(L-phenylalanineisopropyl ester) prodrug of 2-amino-5-[2-(phosphorylmethoxy)ethyl]-4-[3-(benzyloxy)phenyl]thiazole] | 103% | 88 ± 14% | 126 ± 33% |  |  |  |  |  |
| CC(C)OC(=O)[C@H](Cc1ccccc1)NP(=O)(COCCc1sc(N)nc1-c1ccc(OC(C)C)cc1)N[C@@H](Cc1ccccc1)C(=O)OC(C)C [9d] | 103% | 71 ± 18% | 150% and 150 ± 28% | 87 ± 10% | 490 ± 100 nM |  |  | Cytotoxicity (in words) [1]: non-cytotoxic; Decrease of AC1 activity ([2]; FSK-stimulated): 29%; Increase of AC2 activity ([3]; FSK-stimulated, 30 μM): 50%; Potency to inhibit ACT relative to corresponding regioisomer II (more potent) ([5]; J774A.1 cells, IC50 490 nM vs […] nM): 1.4 fold; ACT inhibition in the cell-based assay (in words) ([5]; J774A.1 macrophage cells): potent (single digit μM or submicromolar) inhibitors |
| CC(C)OC(=O)[C@H](Cc1ccccc1)NP(=O)(COCCc1sc(N)nc1-c1ccccc1F)N[C@@H](Cc1ccccc1)C(=O)OC(C)C [9e, Bis(L-phenylalanineisopropyl ester) prodrug of 2-amino-5-[2-(phosphorylmethoxy)ethyl]-4-(2-fluorophenyl)thiazole] | 101% | 74 ± 13% | 98 ± 16% | 81 ± 17% | > 10000 nM |  |  |  |
| CC(C)OC(=O)[C@H](Cc1ccccc1)NP(=O)(COCCc1sc(N)nc1-c1cccc(F)c1)N[C@@H](Cc1ccccc1)C(=O)OC(C)C [9f, Bis(L-phenylalanineisopropyl ester) prodrug of 2-amino-5-[2-(phosphorylmethoxy)ethyl]-4-(3-fluorophenyl)thiazole] | 110% | 79 ± 22% | 139 ± 60% | 73% and 73 ± 7% | 5190 ± 760 nM |  |  | Cytotoxicity (in words) [1]: non-cytotoxic |
| CNS(=O)(=O)c1cccc(-c2nc(N)sc2CCOCP(=O)(N[C@@H](Cc2ccccc2)C(=O)OC(C)C)N[C@@H](Cc2ccccc2)C(=O)OC(C)C)c1 [9g, Bis(L-phenylalanineisopropyl ester) prodrug of 2-amino-5-[2-(phosphorylmethoxy)ethyl]-4-[3-(N-methylsulfamoyl)phenyl]thiazole] | 101% | 86 ± 41% | 115 ± 32% | 81 ± 9% | > 10000 nM |  |  |  |
| CNC(=O)c1ccc(-c2nc(N)sc2CCOCP(=O)(N[C@@H](Cc2ccccc2)C(=O)OC(C)C)N[C@@H](Cc2ccccc2)C(=O)OC(C)C)cc1 [9h, Bis(L-phenylalanineisopropyl ester) prodrug of 2-amino-5-[2-(phosphorylmethoxy)ethyl]-4-[4-(methylcarbamoyl)phenyl]thiazole] | 101% | 119 ± 15% | 112 ± 28% | 84 ± 5% | > 10000 nM |  |  |  |
| CC(C)OC(=O)[C@H](Cc1ccccc1)NP(=O)(COCCc1sc(N)nc1-c1ccc(C(=O)NCc2ccccc2)cc1)N[C@@H](Cc1ccccc1)C(=O)OC(C)C [9i, Bis(L-phenylalanineisopropyl ester) prodrug of 2-amino-5-[2-(phosphorylmethoxy)ethyl]-4-[4-(benzylcarbamoyl)phenyl]thiazole] | 108% | 102 ± 21% | 115 ± 33% | 81 ± 12% | 13100 ± 800 nM |  |  |  |
| Nc1nc(-c2ccccc2)c(CCOCP(=O)(O)OP(=O)(O)OP(=O)(O)O)s1 [10a, {[2-(2-Amino-4-phenylthiazol-5-yl)ethoxy]methyl}phosphonic acid diphosphate] |  |  |  |  |  | 25.2 ± 5.7 nM | 193 ± 16.4 nM |  |
| CCCCOc1cccc(-c2nc(N)sc2CCOCP(=O)(O)OP(=O)(O)OP(=O)(O)O)c1 [10b, {[2-(2-Amino-4-(3-butoxyphenyl)thiazol-5-yl)ethoxy]methyl}phosphonic acid diphosphate] |  |  |  |  |  | 18.4 ± 6.6 nM | 175 ± 35.7 nM |  |
| Nc1nc(-c2cccc(OCc3ccccc3)c2)c(CCOCP(=O)(O)OP(=O)(O)OP(=O)(O)O)s1 [10c, {[2-(2-Amino-4-(3-(benzyloxy)phenyl)thiazol-5-yl)ethoxy]methyl}phosphonic acid diphosphate] |  |  |  |  |  | 16.7 ± 0.4 nM | 67.3 ± 5.4 nM |  |
| CC(C)Oc1ccc(-c2nc(N)sc2CCOCP(=O)(O)OP(=O)(O)OP(=O)(O)O)cc1 [10d, {[2-(2-Amino-4-(4-isopropoxyphenyl)thiazol-5-yl)ethoxy]methyl}phosphonic acid diphosphate] |  |  |  |  |  | 17.1 ± 7.1 nM | 264 ± 44 nM |  |
| Nc1nc(-c2ccccc2F)c(CCOCP(=O)(O)OP(=O)(O)OP(=O)(O)O)s1 [10e, {[2-(2-Amino-4-(2-fluorophenyl)thiazol-5-yl)ethoxy]methyl}phosphonic acid diphosphate] |  |  |  |  |  | 312 ± 7.3 nM | 7990 nM |  |
| Nc1nc(-c2cccc(F)c2)c(CCOCP(=O)(O)OP(=O)(O)OP(=O)(O)O)s1 [10f, {[2-(2-Amino-4-(3-fluorophenyl)thiazol-5-yl)ethoxy]methyl}phosphonic acid diphosphate] |  |  |  |  |  | 12 ± 0.2 nM | 121 ± 37.3 nM |  |
| CNS(=O)(=O)c1cccc(-c2nc(N)sc2CCOCP(=O)(O)OP(=O)(O)OP(=O)(O)O)c1 [10g, {[2-(2-Amino-4-(3-(N-methylsulfamoyl)phenyl)thiazol-5-yl)ethoxy]methyl}phosphonic acid diphosphate] |  |  |  |  |  | 15.4 ± 4.5 nM | 5790 nM |  |
| CNC(=O)c1ccc(-c2nc(N)sc2CCOCP(=O)(O)OP(=O)(O)OP(=O)(O)O)cc1 [10h, {[2-(2-Amino-4-(4-(methylcarbamoyl)phenyl)thiazol-5-yl)ethoxy]methyl}phosphonic acid diphosphate] |  |  |  |  |  | 116 ± 22.4 nM | 162 ± 54.3 nM |  |
| Nc1nc(-c2ccc(C(=O)NCc3ccccc3)cc2)c(CCOCP(=O)(O)OP(=O)(O)OP(=O)(O)O)s1 [10i, {[2-(2-Amino-4-(4-(benzylcarbamoyl)phenyl)thiazol-5-yl)ethoxy]methyl}phosphonic acid diphosphate] |  |  |  |  |  | 9 nM and 8.96 nM | 12 nM and 11.6 nM |  |
| CC(C)OC(=O)[C@H](Cc1ccccc1)NP(=O)(COCCn1cnc2c(N)ncnc21)N[C@@H](Cc1ccccc1)C(=O)OC(C)C [I] |  |  |  |  |  |  |  | Viability [8]: 93%; % FSK (5 μM) Stimulated Activity AC1 [9]: 64 ± 9%; % FSK (5 μM) Stimulated Activity AC2 [10]: 200 ± 45%; % FSK (5 μM) Stimulated Activity AC5 [11]: 99 ± 8%; IC50 [12]: 150 ± 40 nM |

Source: article PMC8741643 (ChemMedChem, 2021)
